Source: ChEMBL document CHEMBL1201862, “PubChem BioAssay data set” (2004)
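Exposure lasted 48 hours, with cells grown in 96-well plates and compounds tested at five concentrations. Here, GI50 denotes the concentration required for 50% inhibition of growth.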 Calls of active or inactive are those of the source. Rule as the data show it: active = GI50 up to about 1.1 µM and inactive = higher.

Experiments:
Assay in all cases: NCI-60 cell line screen, 48 h
HCT-15 = system: HCT-15
MOLT-4 = system: MOLT-4
MDA-MB-435 = system: MDA-MB-435
SF-539 = system: SF-539
Malme-3M = system: Malme-3M
KM12 = system: KM12
MDA-N = system: MDA-N
NCI/ADR-RES = system: NCI/ADR-RES
HOP-62 = system: HOP-62
HCC 2998 = system: HCC 2998
LOX IMVI = system: LOX IMVI
SF-268 = system: SF-268
COLO 205 = system: COLO 205
HCT-116 = system: HCT-116
DU-145 = system: DU-145
PC-3 = system: PC-3
HT-29 = system: HT-29
CCRF-CEM = system: CCRF-CEM
T47D = system: T47D
SF-295 = system: SF-295
NCI-H460 = system: NCI-H460
OVCAR-4 = system: OVCAR-4
Hs-578T = system: Hs-578T
SN12C = system: SN12C
SK-MEL-28 = system: SK-MEL-28
UACC-257 = system: UACC-257
MDA-MB-231 = system: MDA-MB-231
TK-10 = system: TK-10
NCI-H23 = system: NCI-H23
A549 = system: A549
HOP-92 = system: HOP-92
BT-549 = system: BT-549
EKVX = system: EKVX
OVCAR-8 = system: OVCAR-8
NCI-H226 = system: NCI-H226
SK-MEL-5 = system: SK-MEL-5
SNB-19 = system: SNB-19
CAKI-1 = system: CAKI-1
SK-MEL-2 = system: SK-MEL-2
SNB-75 = system: SNB-75
RXF 393 = system: RXF 393
UACC-62 = system: UACC-62
ACHN = system: ACHN
UO-31 = system: UO-31
SW-620 = system: SW-620
MCF7 = system: MCF7
IGROV-1 = system: IGROV-1
786-0 = system: 786-0
U-251 = system: U-251
OVCAR-3 = system: OVCAR-3
OVCAR-5 = system: OVCAR-5
NCI-H522 = system: NCI-H522
SK-OV-3 = system: SK-OV-3
A498 = system: A498
HL-60 = system: HL-60
SR = system: SR
M14 = system: M14
K562 = system: K562
RPMI-8226 = system: RPMI-8226

COC(=O)c1cn(CCCC(=O)O)nn1 was tested, and the GI50 (HCT-15) was greater than 100 µM, the GI50 (MOLT-4) was > 100 µM (inactive) and the GI50 (MDA-MB-435) was > 100 µM (inactive). For the same molecule, the GI50 (SF-539) was > 100 µM (inactive), the GI50 (Malme-3M) was > 100 µM (inactive) and the GI50 (KM12) was > 100 µM (inactive). The GI50 (MDA-N) was > 100 µM (inactive), the GI50 (NCI/ADR-RES) was > 100 µM (inactive) and the GI50 (HOP-62) was > 100 µM (inactive). The GI50 (HCC 2998) was > 100 µM (inactive), the GI50 (LOX IMVI) was > 100 µM (inactive) and the GI50 (SF-268) was > 100 µM (inactive). The GI50 (COLO 205) was > 100 µM (inactive), the GI50 (HCT-116) was > 100 µM (inactive) and the GI50 (DU-145) was > 100 µM (inactive). For the same molecule, the GI50 (PC-3) was > 100 µM (inactive), the GI50 (HT-29) was > 100 µM (inactive) and the GI50 (CCRF-CEM) was > 100 µM (inactive). The GI50 (T47D) was > 100 µM (inactive), the GI50 (SF-295) was > 100 µM (inactive) and the GI50 (NCI-H460) was > 100 µM (inactive). For the same molecule, the GI50 (OVCAR-4) was > 100 µM (inactive), the GI50 (Hs-578T) was > 100 µM (inactive) and the GI50 (SN12C) was > 100 µM (inactive). For the same molecule, the GI50 (SK-MEL-28) was > 100 µM (inactive), the GI50 (UACC-257) was > 100 µM (inactive) and the GI50 (MDA-MB-231) was > 100 µM (inactive). The GI50 (TK-10) was > 100 µM (inactive), the GI50 (NCI-H23) was > 100 µM (inactive) and the GI50 (A549) was > 100 µM (inactive). The GI50 (HOP-92) was > 100 µM (inactive), the GI50 (BT-549) was > 100 µM (inactive) and the GI50 (EKVX) was > 100 µM (inactive). The GI50 (OVCAR-8) was > 100 µM (inactive), the GI50 (NCI-H226) was > 100 µM (inactive) and the GI50 (SK-MEL-5) was > 100 µM (inactive). The GI50 (SNB-19) was > 100 µM (inactive), the GI50 (CAKI-1) was > 100 µM (inactive) and the GI50 (SK-MEL-2) was > 100 µM (inactive). For the same molecule, the GI50 (SNB-75) was > 100 µM (inactive), the GI50 (RXF 393) was > 100 µM (inactive) and the GI50 (UACC-62) was > 100 µM (inactive). For the same molecule, the GI50 (ACHN) was > 100 µM (inactive), the GI50 (UO-31) was > 100 µM (inactive) and the GI50 (SW-620) was > 100 µM (inactive). For the same molecule, the GI50 (MCF7) was > 100 µM (inactive), the GI50 (IGROV-1) was > 100 µM (inactive) and the GI50 (786-0) was > 100 µM (inactive). For the same molecule, the GI50 (U-251) was > 100 µM (inactive).
For O=C1CC(=O)c2c(Cl)sc(Cl)c21, the GI50 (HCT-15) was 64.4 µM, the GI50 (MOLT-4) was 34.1 µM (inactive) and the GI50 (MDA-MB-435) was 64.1 µM (inactive). For the same molecule, the GI50 (OVCAR-3) was 86.5 µM (inactive), the GI50 (SF-539) was > 100 µM (inactive) and the GI50 (Malme-3M) was 21.6 µM (inactive). For the same molecule, the GI50 (KM12) was > 100 µM (inactive), the GI50 (MDA-N) was > 100 µM (inactive) and the GI50 (NCI/ADR-RES) was > 100 µM (inactive). The GI50 (OVCAR-5) was > 100 µM (inactive), the GI50 (HOP-62) was > 100 µM (inactive) and the GI50 (NCI-H522) was 23.8 µM (inactive). The GI50 (LOX IMVI) was 52.8 µM (inactive), the GI50 (SF-268) was 64.7 µM (inactive) and the GI50 (COLO 205) was > 100 µM (inactive). The GI50 (HCT-116) was > 100 µM (inactive), the GI50 (DU-145) was > 100 µM (inactive) and the GI50 (HT-29) was > 100 µM (inactive). For the same molecule, the GI50 (CCRF-CEM) was 37.2 µM (inactive), the GI50 (T47D) was > 100 µM (inactive) and the GI50 (SF-295) was > 100 µM (inactive). For the same molecule, the GI50 (NCI-H460) was > 100 µM (inactive), the GI50 (OVCAR-4) was 29.2 µM (inactive) and the GI50 (Hs-578T) was 33.8 µM (inactive). The GI50 (SN12C) was > 100 µM (inactive), the GI50 (SK-MEL-28) was 53.8 µM (inactive) and the GI50 (UACC-257) was > 100 µM (inactive). For the same molecule, the GI50 (MDA-MB-231) was > 100 µM (inactive), the GI50 (TK-10) was > 100 µM (inactive) and the GI50 (NCI-H23) was 51.6 µM (inactive). For the same molecule, the GI50 (A549) was 87.1 µM (inactive), the GI50 (SK-OV-3) was > 100 µM (inactive) and the GI50 (HOP-92) was > 100 µM (inactive). The GI50 (BT-549) was > 100 µM (inactive), the GI50 (EKVX) was > 100 µM (inactive) and the GI50 (OVCAR-8) was 52.2 µM (inactive). For the same molecule, the GI50 (NCI-H226) was 86.1 µM (inactive), the GI50 (SK-MEL-5) was > 100 µM (inactive) and the GI50 (CAKI-1) was > 100 µM (inactive). The GI50 (A498) was > 100 µM (inactive), the GI50 (HL-60) was 30.3 µM (inactive) and the GI50 (SK-MEL-2) was > 100 µM (inactive). For the same molecule, the GI50 (SNB-75) was > 100 µM (inactive), the GI50 (RXF 393) was 16.1 µM (inactive) and the GI50 (SR) was 25.6 µM (inactive). The GI50 (UACC-62) was 92.3 µM (inactive), the GI50 (ACHN) was > 100 µM (inactive) and the GI50 (UO-31) was > 100 µM (inactive). For the same molecule, the GI50 (M14) was > 100 µM (inactive), the GI50 (SW-620) was 91 µM (inactive) and the GI50 (MCF7) was 45.5 µM (inactive). The GI50 (IGROV-1) was > 100 µM (inactive), the GI50 (K562) was 40.9 µM (inactive) and the GI50 (786-0) was > 100 µM (inactive). The GI50 (U-251) was > 100 µM (inactive).
In the case of COC(=O)/C(=N\NC(N)=O)C(C(=O)C(=O)Nc1ccccc1OC)c1nc2ccc([N+](=O)[O-])cc2nc1O (stereo unspecified), the GI50 (HCT-15) is reported as greater than 100 µM, the GI50 (MOLT-4) is reported as > 10 µM (inactive) and the GI50 (MDA-MB-435) is reported as 44.3 µM (inactive). For the same molecule, the GI50 (OVCAR-3) was > 100 µM (inactive), the GI50 (SF-539) was > 100 µM (inactive) and the GI50 (Malme-3M) was > 100 µM (inactive). For the same molecule, the GI50 (KM12) was 58.1 µM (inactive), the GI50 (MDA-N) was 55.1 µM (inactive) and the GI50 (NCI/ADR-RES) was > 100 µM (inactive). The GI50 (OVCAR-5) was > 100 µM (inactive), the GI50 (HOP-62) was > 100 µM (inactive) and the GI50 (HCC 2998) was > 100 µM (inactive). The GI50 (NCI-H522) was > 100 µM (inactive), the GI50 (LOX IMVI) was > 100 µM (inactive) and the GI50 (SF-268) was > 100 µM (inactive). The GI50 (HCT-116) was > 100 µM (inactive), the GI50 (PC-3) was > 100 µM (inactive) and the GI50 (HT-29) was > 100 µM (inactive). For the same molecule, the GI50 (CCRF-CEM) was > 100 µM (inactive), the GI50 (T47D) was > 100 µM (inactive) and the GI50 (SF-295) was > 100 µM (inactive). The GI50 (NCI-H460) was > 100 µM (inactive), the GI50 (OVCAR-4) was 53 µM (inactive) and the GI50 (Hs-578T) was 82.2 µM (inactive). The GI50 (SN12C) was > 100 µM (inactive), the GI50 (SK-MEL-28) was > 100 µM (inactive) and the GI50 (UACC-257) was > 100 µM (inactive). The GI50 (MDA-MB-231) was > 100 µM (inactive), the GI50 (RPMI-8226) was > 100 µM (inactive) and the GI50 (TK-10) was > 100 µM (inactive). For the same molecule, the GI50 (NCI-H23) was > 100 µM (inactive), the GI50 (A549) was > 100 µM (inactive) and the GI50 (SK-OV-3) was > 100 µM (inactive). For the same molecule, the GI50 (HOP-92) was > 100 µM (inactive), the GI50 (BT-549) was > 100 µM (inactive) and the GI50 (EKVX) was > 100 µM (inactive). For the same molecule, the GI50 (OVCAR-8) was > 100 µM (inactive), the GI50 (NCI-H226) was > 100 µM (inactive) and the GI50 (SK-MEL-5) was > 100 µM (inactive). For the same molecule, the GI50 (SNB-19) was > 100 µM (inactive), the GI50 (CAKI-1) was > 100 µM (inactive) and the GI50 (A498) was > 100 µM (inactive). The GI50 (HL-60) was > 100 µM (inactive), the GI50 (SK-MEL-2) was > 100 µM (inactive) and the GI50 (SNB-75) was > 100 µM (inactive). The GI50 (RXF 393) was > 100 µM (inactive), the GI50 (SR) was > 100 µM (inactive) and the GI50 (UACC-62) was > 100 µM (inactive). The GI50 (ACHN) was > 100 µM (inactive), the GI50 (UO-31) was > 100 µM (inactive) and the GI50 (M14) was > 100 µM (inactive). The GI50 (SW-620) was > 100 µM (inactive), the GI50 (MCF7) was > 100 µM (inactive) and the GI50 (IGROV-1) was 53.1 µM (inactive). The GI50 (K562) was 30 µM (inactive), the GI50 (786-0) was > 100 µM (inactive) and the GI50 (U-251) was > 100 µM (inactive).
